The values that follow come from ChEMBL document CHEMBL4842346, “Improving the metabolic stability of antifungal compounds based on a scaffold hopping strategy: Design, synthesis, and structure-activity relationship studies of dihydrooxazole derivatives” (Eur J Med Chem, 2021).

The structures appear in SMILES notation. Values after ≈ are worked out from the molar mass of the structure shown.

Type in all cases: functional
For one assay, the system named is Pichia kudriavzevii. Description: Antifungal activity against Candida krusei GIM2.1 assessed as inhibition of fungal growth by NCCLS protocol based method.
Assay [1] relates to Candida albicans. The assay can be described thus: Antifungal activity against Candida albicans SC5314 assessed as inhibition of fungal growth by NCCLS protocol based method.
Assay [2] concerns Candida albicans. Description: Antifungal activity against Candida albicans GIM2.194 assessed as inhibition of fungal growth by NCCLS protocol based method.
Another assay relates to Aspergillus fumigatus. The assay can be described thus: Antifungal activity against Aspergillus fumigatus CGMCC3.7795 assessed as inhibition of fungal growth by NCCLS protocol based method.
In another assay the test system is Candida tropicalis. Description: Antifungal activity against Candida tropicalis GIM2.183 assessed as inhibition of fungal growth by NCCLS protocol based method.
In a further assay the test system is Candida parapsilosis. Description: Antifungal activity against Candida parapsilosis GIM2.190 assessed as inhibition of fungal growth by NCCLS protocol based method. The conditions noted are these: Lodderomyces parapsilosis.
Assay [3] has as its system Cryptococcus neoformans. The assay can be described thus: Antifungal activity against Cryptococcus neoformans GIM2.209 assessed as inhibition of fungal growth by NCCLS protocol based method.
The subject of assay [4] is Cryptococcus neoformans. The assay can be described thus: Antifungal activity against Cryptococcus neoformans CGMCC2.3161 assessed as inhibition of fungal growth by NCCLS protocol based method.
Assay [5] relates to Candida albicans. Description: Antifungal activity against Candida albicans CPCC400523 assessed as inhibition of fungal growth by NCCLS protocol based method.

With `N#Cc1ccc(-c2ccc(C3=NC(Cn4cncn4)(c4ccccc4)CO3)cc2)cc1` (stereo not given), the MIC in the assay on Pichia kudriavzevii is more than 64 µg/mL; with Candida albicans [1], more than 16 µg/mL; in the assay with Candida albicans [2], more than 16 µg/mL; in the assay with Aspergillus fumigatus, more than 64 µg/mL; in the assay with Candida tropicalis, more than 16 µg/mL; with Candida parapsilosis it was more than 64 µg/mL.

On to `c1ccc(-c2ccc(C3=NC(Cn4ccnc4)C(c4ccccc4)O3)cc2)cc1` (stereo not given), for which the minimal inhibitory concentration (MIC) in the assay on Candida albicans [1], with Candida albicans [2], in the assay on Cryptococcus neoformans [3], with Aspergillus fumigatus and with Candida tropicalis was more than 64 µg/mL each time.

`FC(F)(F)Oc1ccc(-c2ccc(C3=NC(Cn4cncn4)(c4ccccc4)CO3)cc2)cc1` (stereo not given): the MIC is more than 64 µg/mL with Pichia kudriavzevii; more than 16 µg/mL with Candida albicans [1]; more than 16 µg/mL in the assay on Candida albicans [2]; more than 64 µg/mL with Aspergillus fumigatus; more than 16 µg/mL with Candida tropicalis; more than 64 µg/mL with Candida parapsilosis.

In the case of `Fc1cc(F)cc(C2(Cn3cncn3)COC(c3ccc(-c4ccccc4F)cc3)=N2)c1` (stereo not given), the minimal inhibitory concentration (MIC) was more than 64 µg/mL in the assay with Pichia kudriavzevii; 0.06 µg/mL (≈ 0.138 µM) in the assay on Candida albicans [1]; more than 16 µg/mL with Candida albicans [2]; more than 64 µg/mL with Aspergillus fumigatus; more than 16 µg/mL with Candida tropicalis; more than 64 µg/mL in the assay on Candida parapsilosis.

For `c1ccc(-c2ccc(C3=NC(Cn4cnnn4)(c4ccccc4)CO3)cc2)cc1` (stereo not given), the MIC with Pichia kudriavzevii is more than 64 µg/mL; in the assay on Candida albicans [1], more than 16 µg/mL; with Candida albicans [2] it was more than 16 µg/mL; with Aspergillus fumigatus, more than 64 µg/mL; in the assay with Candida tropicalis, more than 16 µg/mL; in the assay on Candida parapsilosis, more than 64 µg/mL.

For the compound `Fc1cccc(-c2ccc(C3=NC(Cn4cncn4)(c4ccccc4)CO3)cc2)c1` (stereo not given), the minimum inhibitory concentration (MIC) with Pichia kudriavzevii was less than 0.125 µg/mL; in the assay on Candida albicans [1], less than 0.03 µg/mL; in the assay with Candida albicans [2], less than 0.03 µg/mL; with Aspergillus fumigatus, more than 64 µg/mL; in the assay on Candida tropicalis it was 0.06 µg/mL (≈ 0.151 µM); in the assay with Candida parapsilosis it was 16 µg/mL (≈ 40.2 µM).

For `Fc1ccccc1-c1ccc(C2=NC(Cn3cncn3)(c3ccccc3)CO2)cc1` (stereo not given), the MIC was 0.5 µg/mL (≈ 1.25 µM) in the assay with Pichia kudriavzevii; less than 0.03 µg/mL in the assay on Candida albicans [1]; less than 0.03 µg/mL with Candida albicans [2]; more than 64 µg/mL with Aspergillus fumigatus; 0.06 µg/mL (≈ 0.151 µM) with Candida tropicalis; 16 µg/mL (≈ 40.2 µM) in the assay on Candida parapsilosis.

With `Fc1ccc(-c2ccc(C3=NC(Cn4cncn4)(c4ccccc4)CO3)cc2)cc1` (stereo not given), the MIC is more than 64 µg/mL in the assay on Pichia kudriavzevii; 0.25 µg/mL (≈ 0.627 µM) in the assay on Candida albicans [1]; more than 16 µg/mL in the assay on Candida albicans [2]; more than 64 µg/mL with Aspergillus fumigatus; 8 µg/mL (≈ 20.1 µM) in the assay with Candida tropicalis; more than 64 µg/mL with Candida parapsilosis.

In the case of `FC(F)(F)c1ccc(-c2ccc(C3=NC(Cn4cncn4)(c4ccccc4)CO3)cc2)cc1` (stereo not given), the MIC is more than 64 µg/mL with Pichia kudriavzevii; more than 16 µg/mL in the assay with Candida albicans [1]; more than 16 µg/mL in the assay with Candida albicans [2]; more than 64 µg/mL with Aspergillus fumigatus; more than 16 µg/mL in the assay with Candida tropicalis; more than 64 µg/mL in the assay with Candida parapsilosis.

On to `c1ccc(-c2ccc(C3=NC(Cn4cncn4)(c4ccccc4)CO3)cc2)cc1` (stereo not given), for which the MIC was 0.25 µg/mL (≈ 0.657 µM) in the assay with Pichia kudriavzevii; less than 0.03 µg/mL in the assay on Candida albicans [1]; less than 0.03 µg/mL with Candida albicans [2]; 2 µg/mL (≈ 5.26 µM) in the assay with Aspergillus fumigatus; 0.06 µg/mL (≈ 0.158 µM) with Candida tropicalis; 0.25 µg/mL (≈ 0.657 µM) with Candida parapsilosis.

As to `CC(C)(O)C(Cn1ccnc1)NC(=O)c1ccc(-c2ccccc2)cc1` (stereo not given), the minimal inhibitory concentration (MIC) was 8 µg/mL (≈ 22.9 µM) in the assay with Candida albicans [1], more than 64 µg/mL in the assay on Cryptococcus neoformans [4], more than 64 µg/mL with Candida albicans [5] and more than 64 µg/mL with Aspergillus fumigatus.

In the case of `Fc1cccc(-c2ccc(C3=NC(Cn4cncn4)(c4cc(F)cc(F)c4)CO3)cc2)c1` (stereo not given), the MIC is more than 64 µg/mL in the assay with Pichia kudriavzevii; 0.06 µg/mL (≈ 0.138 µM) in the assay on Candida albicans [1]; more than 16 µg/mL with Candida albicans [2]; more than 64 µg/mL with Aspergillus fumigatus; more than 16 µg/mL with Candida tropicalis; more than 64 µg/mL in the assay on Candida parapsilosis.

Regarding `O=C(c1ccccc1)C1(Cn2ccnc2)COC(c2ccc(-c3ccccc3)cc2)=N1` (stereo not given), the MIC in the assay on Candida albicans [1] was 0.5 µg/mL (≈ 1.23 µM); with Candida albicans [2] it was more than 64 µg/mL; in the assay with Cryptococcus neoformans [3], more than 64 µg/mL; with Aspergillus fumigatus, more than 64 µg/mL; in the assay on Candida tropicalis, more than 64 µg/mL.

On to `C[C@H]1OC(c2ccc(-c3ccccc3)cc2)=N[C@H]1Cn1ccnc1`, for which the MIC with Candida albicans [1] is more than 64 µg/mL; in the assay on Candida albicans [2], more than 64 µg/mL; in the assay on Cryptococcus neoformans [3] it was more than 64 µg/mL; in the assay on Aspergillus fumigatus, more than 64 µg/mL; in the assay with Candida tropicalis, 4 µg/mL (≈ 12.6 µM).

Consider `CN(C)C(=O)C(Cn1ccnc1)NC(=O)c1ccc(-c2ccccc2)cc1` (stereo not given), for which the MIC in the assay with Candida albicans [1] is 4 µg/mL (≈ 11 µM); with Cryptococcus neoformans [4], more than 64 µg/mL; with Candida albicans [5], more than 64 µg/mL; with Aspergillus fumigatus, more than 64 µg/mL.

Regarding `Fc1cc(F)cc(-c2ccc(C3=NC(Cn4cncn4)(c4ccccc4)CO3)cc2)c1` (stereo not given), the MIC in the assay on Pichia kudriavzevii was more than 64 µg/mL; in the assay with Candida albicans [1] it was more than 16 µg/mL; in the assay with Candida albicans [2], more than 16 µg/mL; in the assay on Aspergillus fumigatus, more than 64 µg/mL; with Candida tropicalis it was more than 16 µg/mL; with Candida parapsilosis, more than 64 µg/mL.

Consider `c1ccc(CC2(Cn3ccnc3)COC(c3ccc(-c4ccccc4)cc3)=N2)cc1` (stereo not given), for which the MIC in the assay with Candida albicans [1] is less than 0.125 µg/mL; in the assay on Candida albicans [2], 0.5 µg/mL (≈ 1.27 µM); with Cryptococcus neoformans [3] it was more than 64 µg/mL; in the assay on Aspergillus fumigatus it was more than 64 µg/mL; in the assay with Candida tropicalis, 0.5 µg/mL (≈ 1.27 µM).

As for `FC(F)(c1ccccc1)C1(Cn2ccnc2)COC(c2ccc(-c3ccccc3)cc2)=N1` (stereo not given), the minimal inhibitory concentration (MIC) in the assay with Candida albicans [1] was less than 0.125 µg/mL; with Candida albicans [2] it was more than 64 µg/mL; in the assay on Cryptococcus neoformans [3] it was more than 64 µg/mL; in the assay on Aspergillus fumigatus, more than 64 µg/mL; in the assay on Candida tropicalis, less than 0.125 µg/mL.

On to `CC1(Cn2ccnc2)COC(c2ccc(-c3ccccc3)cc2)=N1` (stereo not given), for which the MIC was 2 µg/mL (≈ 6.3 µM) in the assay on Candida albicans [1]; 8 µg/mL (≈ 25.2 µM) with Candida albicans [2]; more than 64 µg/mL with Cryptococcus neoformans [3]; 0.5 µg/mL (≈ 1.58 µM) with Aspergillus fumigatus; 4 µg/mL (≈ 12.6 µM) with Candida tropicalis.

Turning to `Fc1ccccc1-c1ccc(C2=NC(Cn3cncn3)(c3cccc(Cl)c3)CO2)cc1` (stereo not given), the MIC was more than 64 µg/mL with Pichia kudriavzevii; 0.06 µg/mL (≈ 0.139 µM) with Candida albicans [1]; more than 16 µg/mL in the assay on Candida albicans [2]; more than 64 µg/mL with Aspergillus fumigatus; more than 16 µg/mL in the assay on Candida tropicalis; more than 64 µg/mL in the assay on Candida parapsilosis.

In the case of `Clc1ccccc1-c1ccc(C2=NC(Cn3cncn3)(c3ccccc3)CO2)cc1` (stereo not given), the minimal inhibitory concentration (MIC) in the assay on Pichia kudriavzevii is more than 64 µg/mL; in the assay on Candida albicans [1], more than 16 µg/mL; in the assay on Candida albicans [2], more than 16 µg/mL; in the assay with Aspergillus fumigatus, more than 64 µg/mL; in the assay on Candida tropicalis, more than 16 µg/mL; in the assay with Candida parapsilosis it was more than 64 µg/mL.

Take `Clc1ccc(-c2ccc(C3=NC(Cn4cncn4)(c4ccccc4)CO3)cc2)cc1` (stereo not given): the minimal inhibitory concentration (MIC) in the assay with Pichia kudriavzevii was more than 64 µg/mL; with Candida albicans [1] it was more than 16 µg/mL; with Candida albicans [2], more than 16 µg/mL; in the assay on Aspergillus fumigatus, more than 64 µg/mL; with Candida tropicalis, more than 16 µg/mL; in the assay with Candida parapsilosis, more than 64 µg/mL.

As for `Clc1cccc(-c2ccc(C3=NC(Cn4cncn4)(c4ccccc4)CO3)cc2)c1` (stereo not given), the minimal inhibitory concentration (MIC) with Pichia kudriavzevii was more than 64 µg/mL; in the assay on Candida albicans [1] it was more than 16 µg/mL; with Candida albicans [2] it was more than 16 µg/mL; in the assay on Aspergillus fumigatus, more than 64 µg/mL; in the assay with Candida tropicalis it was more than 16 µg/mL; with Candida parapsilosis it was more than 64 µg/mL.

As for `Fc1cc(-c2ccccc2)ccc1C1=NC(Cn2cncn2)(c2ccccc2)CO1` (stereo not given), the minimum inhibitory concentration (MIC) with Pichia kudriavzevii was more than 64 µg/mL; with Candida albicans [1] it was less than 0.03 µg/mL; in the assay with Candida albicans [2], 0.06 µg/mL (≈ 0.151 µM); with Aspergillus fumigatus, more than 64 µg/mL; in the assay with Candida tropicalis, 0.06 µg/mL (≈ 0.151 µM); with Candida parapsilosis, 16 µg/mL (≈ 40.2 µM).

As to `CC(C)C1OC(c2ccc(-c3ccccc3)cc2)=NC1Cn1ccnc1` (stereo not given), the minimal inhibitory concentration (MIC) was 0.5 µg/mL (≈ 1.45 µM) in the assay with Candida albicans [1]; more than 64 µg/mL with Candida albicans [2]; more than 64 µg/mL in the assay with Cryptococcus neoformans [3]; more than 64 µg/mL in the assay with Aspergillus fumigatus; less than 0.125 µg/mL with Candida tropicalis.

With `Fc1cc(C2=NC(Cn3cncn3)(c3ccccc3)CO2)ccc1-c1ccccc1` (stereo not given), the MIC is 0.5 µg/mL (≈ 1.25 µM) in the assay with Pichia kudriavzevii; less than 0.03 µg/mL with Candida albicans [1]; less than 0.03 µg/mL in the assay with Candida albicans [2]; more than 64 µg/mL with Aspergillus fumigatus; 0.06 µg/mL (≈ 0.151 µM) in the assay on Candida tropicalis; 4 µg/mL (≈ 10 µM) in the assay on Candida parapsilosis.
